By IC50 is commonly meant the concentration at which inhibition is half-maximal.

This note sets out measurements from US9546173B2 (Novartis AG, priority 2012, dated 2017).

Sequence of activated ERK2 (P28482 whole entry): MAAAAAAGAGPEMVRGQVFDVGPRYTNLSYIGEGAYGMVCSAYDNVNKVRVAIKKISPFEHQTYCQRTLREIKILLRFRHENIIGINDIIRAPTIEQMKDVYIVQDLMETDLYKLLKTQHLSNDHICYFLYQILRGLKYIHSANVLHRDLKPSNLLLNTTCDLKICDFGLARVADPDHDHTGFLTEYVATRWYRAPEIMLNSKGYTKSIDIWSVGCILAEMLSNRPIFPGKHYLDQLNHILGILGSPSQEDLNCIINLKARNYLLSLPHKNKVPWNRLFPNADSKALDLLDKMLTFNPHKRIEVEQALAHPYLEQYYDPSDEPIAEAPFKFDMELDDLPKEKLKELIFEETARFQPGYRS

For this experiment, the target named is activated ERK2 (Homo sapiens (Human), UniProt P28482). In words: Activated ERK2 kinase assay (AlphaScreen, ERKtide peptide phosphorylation). It counts as biochemical. The settings on record: […] ERK2, 200 nM ERKtide peptide, 35 μM ATP, 30 min preincubation; read-out: ERK2 IC50. The source says:
Production of Activated ERK2 Protein:
Activated ERK2 protein was generated in insect cells by co-expression with a constitutively active form of MEK1. The ERK2 protein was expressed and purified as a nHis-PreScission-ERK2 tagged protein and then proteolytically processed to the full-length wild-type protein. […] Double-phosphorylated ERK2 protein was purified from the mixture by mono-Q column separation.
Activated ERK2 Kinase Assay:
A 16-point, half-log dilution series of compounds at 41× final concentration was used for generating IC50 curves. Compound dilution series were prepared in 100% DMSO. ERK2 was preincubated with compounds for 30 minutes at ambient temperature. Reaction was initiated by addition of a substrate cocktail of ERKtide peptide and ATP and was allowed to proceed for 2-3 hours at ambient temperature. Reaction was terminated by addition of 10 μL of a 2× stop buffer consisting of 100 mM Tris-Cl [pH 7.5], 25 mM EDTA, 0.01% Tween 20, 10 μg/mL of AlphaScreen Protein A Acceptor Beads, 10 μg/mL of Streptavidin Donor Beads (PerkinElmer, Waltham, Mass.), and 1.4 μg/mL phospho-EGF Receptor (Thr669) antibody (Cat #3056, Cell Signaling Technology, Danvers, Mass.). Terminated reactions were read, after overnight incubation in the dark, on an EnVision Multilabel Plate Reader (PerkinElmer, Waltham, Mass.), with excitation and emission wavelengths set to 680 nm and 570 nm, respectively. IC50 values were determined using a four-parameter fit.
In general terms: Bead proximity is the source of the signal in Alpha formats.
Take `CC1(C)c2cnc(NC3CCOCC3)nc2CN1C(=O)NCc1nc2ccccc2s1` [compound 30, N-(benzo[d]thiazol-2-ylmethyl)-5,5-dimethyl-2-((tetrahydro-2H-pyran-4-yl)amino)-5H-pyrrolo[3,4-d]pyrimidine-6(7H)-carboxamide]: the IC50 stood at 49 nM.

In the case of `CC1(C)c2cnc(NC3CC3)nc2CN1C(=O)N[C@H](CO)c1ccccc1` [compound 31, (S)-2-(cyclopropylamino)-N-(2-hydroxy-1-phenylethyl)-5,5-dimethyl-5H-pyrrolo[3,4-d]pyrimidine-6(7H)-carboxamide], the IC50 came out at 317 nM.

For `CC1(C)c2cnc(NC3CCOCC3)nc2CN1C(=O)N[C@H](CN)c1ccccc1` [compound 32, (S)-N-(2-amino-1-phenylethyl)-5,5-dimethyl-2-((tetrahydro-2H-pyran-4-yl)amino)-5H-pyrrolo[3,4-d]pyrimidine-6(7H)-carboxamide], the IC50 worked out at 14 nM.

Consider `CC(C)[C@@H](C)NC(=O)N1Cc2nc(NC3CCOCC3)ncc2C1(C)C` [compound 33, (R)-5,5-dimethyl-N-(3-methylbutan-2-yl)-2-((tetrahydro-2H-pyran-4-yl)amino)-5H-pyrrolo[3,4-d]pyrimidine-6(7H)-carboxamide], for which the concentration for half-maximal inhibition (IC50) was 596 nM.

With `CC1(C)c2cnc(NC3CCOCC3)nc2CN1C(=O)NCc1cc[nH]c(=O)c1` [compound 34, 5,5-dimethyl-N-((2-oxo-1,2-dihydropyridin-4-yl)methyl)-2-((tetrahydro-2H-pyran-4-yl)amino)-5H-pyrrolo[3,4-d]pyrimidine-6(7H)-carboxamide], the IC50 turned out to be 5440 nM.

`CC1(C)c2cnc(NC3CCOCC3)nc2CN1C(=O)NCc1ccc(Cl)cn1` [compound 35, N-((5-chloropyridin-2-yl)methyl)-5,5-dimethyl-2-((tetrahydro-2H-pyran-4-yl)amino)-5H-pyrrolo[3,4-d]pyrimidine-6(7H)-carboxamide]: the concentration for half-maximal inhibition (IC50) was found to be 106 nM.

For the compound `CC1(C)c2cnc(NC3CCOCC3)nc2CN1C(=O)NC1(c2ccccc2)CC1` [compound 36, 5,5-dimethyl-N-(1-phenylcyclopropyl)-2-((tetrahydro-2H-pyran-4-yl)amino)-5H-pyrrolo[3,4-d]pyrimidine-6(7H)-carboxamide], the IC50 was found to be 17 nM.

Take `CC1(C)c2cnc(NC3CCOCC3)nc2CN1C(=O)NCC1CC1` [compound 37, N-(cyclopropylmethyl)-5,5-dimethyl-2-((tetrahydro-2H-pyran-4-yl)amino)-5H-pyrrolo[3,4-d]pyrimidine-6(7H)-carboxamide]: the IC50 is 541 nM.

`CC1(C)c2cnc(NC3CCOCC3)nc2CN1C(=O)N[C@H]1c2ccccc2C[C@H]1O` [compound 38, N-((1S,2R)-2-hydroxy-2,3-dihydro-1H-inden-1-yl)-5,5-dimethyl-2-((tetrahydro-2H-pyran-4-yl)amino)-5H-pyrrolo[3,4-d]pyrimidine-6(7H)-carboxamide]: the IC50 stood at 516 nM.

Consider `CC1(C)c2cnc(NC3CCOCC3)nc2CN1C(=O)N[C@@H]1c2ccccc2C[C@@H]1O` [compound 39, N-((1R,2S)-2-hydroxy-2,3-dihydro-1H-inden-1-yl)-5,5-dimethyl-2-((tetrahydro-2H-pyran-4-yl)amino)-5H-pyrrolo[3,4-d]pyrimidine-6(7H)-carboxamide], for which the IC50 is less than 25000 nM.

For `C[C@H](NC(=O)N1Cc2nc(NC3CCOCC3)ncc2C1(C)C)c1ccccc1` [compound 40, (S)-5,5-dimethyl-N-(1-phenylethyl)-2-((tetrahydro-2H-pyran-4-yl)amino)-5H-pyrrolo[3,4-d]pyrimidine-6(7H)-carboxamide], the IC50 was found to be 799 nM.

With `CC1(C)c2cnc(NC3CCOCC3)nc2CN1C(=O)N[C@@H]1CCCN(S(=O)(=O)c2ccccc2F)C1` [compound 41, (R)-N-(1-((2-fluorophenyl)sulfonyl)piperidin-3-yl)-5,5-dimethyl-2-((tetrahydro-2H-pyran-4-yl)amino)-5H-pyrrolo[3,4-d]pyrimidine-6(7H)-carboxamide], the IC50 is 13 nM.

Turning to `CC1(C)c2cnc(NC3CCOCC3)nc2CN1C(=O)N[C@@H]1CCCN(S(=O)(=O)c2ccccc2)C1` [compound 42, (R)-5,5-dimethyl-N-(1-(phenylsulfonyl)piperidin-3-yl)-2-((tetrahydro-2H-pyran-4-yl)amino)-5H-pyrrolo[3,4-d]pyrimidine-6(7H)-carboxamide], the IC50 stood at 27 nM.

As to `CC1(C)c2cnc(NC3CCOCC3)nc2CN1C(=O)NC1(c2ccccc2)CCOCC1` [compound 44, 5,5-dimethyl-N-(4-phenyltetrahydro-2H-pyran-4-yl)-2-((tetrahydro-2H-pyran-4-yl)amino)-5H-pyrrolo[3,4-d]pyrimidine-6(7H)-carboxamide], the IC50 worked out at 2730 nM.

As for `Cc1cc(Nc2ncc3c(n2)CN(C(=O)N[C@H](CO)c2ccccc2)C3(C)C)ccn1` [compound 45, (S)-N-(2-hydroxy-1-phenylethyl)-5,5-dimethyl-2-((2-methylpyridin-4-yl)amino)-5H-pyrrolo[3,4-d]pyrimidine-6(7H)-carboxamide], the IC50 was determined as 625 nM.

As for `CC1(C)c2cnc(NC3CCOCC3)nc2CN1C(=O)NCc1ccccc1` [compound 46, N-benzyl-5,5-dimethyl-2-((tetrahydro-2H-pyran-4-yl)amino)-5H-pyrrolo[3,4-d]pyrimidine-6(7H)-carboxamide], the IC50 was 31 nM.

As to `CC1(C)c2cnc(NC3CCOCC3)nc2CN1C(=O)NCC1CCCCC1` [compound 47, N-(cyclohexylmethyl)-5,5-dimethyl-2-((tetrahydro-2H-pyran-4-yl)amino)-5H-pyrrolo[3,4-d]pyrimidine-6(7H)-carboxamide], the IC50 was found to be 31 nM.

For `CNC(=O)N1Cc2nc(NC3CCOCC3)ncc2C1(C)C` [compound 49, N,5,5-trimethyl-2-((tetrahydro-2H-pyran-4-yl)amino)-5H-pyrrolo[3,4-d]pyrimidine-6(7H)-carboxamide], the IC50 turned out to be 988 nM.

In the case of `CCNC(=O)N1Cc2nc(NC3CCOCC3)ncc2C1(C)C` [compound 50, N-ethyl-5,5-dimethyl-2-((tetrahydro-2H-pyran-4-yl)amino)-5H-pyrrolo[3,4-d]pyrimidine-6(7H)-carboxamide], the IC50 was 839 nM.

On to `CC(C)NC(=O)N1Cc2nc(NC3CCOCC3)ncc2C1(C)C` [compound 51, N-isopropyl-5,5-dimethyl-2-((tetrahydro-2H-pyran-4-yl)amino)-5H-pyrrolo[3,4-d]pyrimidine-6(7H)-carboxamide], for which the IC50 was determined as 938 nM.

Turning to `CC1(C)c2cnc(Nc3ccc(F)cc3)nc2CN1C(=O)N[C@H](CO)c1ccccc1` [compound 52, (S)-2-((4-fluorophenyl)amino)-N-(2-hydroxy-1-phenylethyl)-5,5-dimethyl-5H-pyrrolo[3,4-d]pyrimidine-6(7H)-carboxamide], the IC50 was found to be 107 nM.

On to `CC1(C)c2cnc(NCC3CC3)nc2CN1C(=O)N[C@H](CO)c1ccccc1` [compound 53, (S)-2-((cyclopropylmethyl)amino)-N-(2-hydroxy-1-phenylethyl)-5,5-dimethyl-5H-pyrrolo[3,4-d]pyrimidine-6(7H)-carboxamide], for which the IC50 was determined as 505 nM.

Regarding `CC1(C)c2cnc(NC3CC(F)(F)C3)nc2CN1C(=O)N[C@H](CO)c1ccccc1` [compound 54, (S)-2-((3,3-difluorocyclobutyl)amino)-N-(2-hydroxy-1-phenylethyl)-5,5-dimethyl-5H-pyrrolo[3,4-d]pyrimidine-6(7H)-carboxamide], the IC50 worked out at 727 nM.

Regarding `CC1(C)c2cnc(N[C@H]3C[C@@H](O)C3)nc2CN1C(=O)N[C@H](CO)c1ccccc1` [compound 55, N-((S)-2-hydroxy-1-phenylethyl)-2-(((1s,3R)-3-hydroxycyclobutyl)amino)-5,5-dimethyl-5H-pyrrolo[3,4-d]pyrimidine-6(7H)-carboxamide], the half-inhibitory concentration (IC50) was determined as 677 nM.

Consider `CC(=O)NCCNc1ncc2c(n1)CN(C(=O)N[C@H](CO)c1ccccc1)C2(C)C` [compound 56, (S)-2-((2-acetamidoethyl)amino)-N-(2-hydroxy-1-phenylethyl)-5,5-dimethyl-5H-pyrrolo[3,4-d]pyrimidine-6(7H)-carboxamide], for which the IC50 came out at 3500 nM.

For the compound `COCCNc1ncc2c(n1)CN(C(=O)N[C@H](CO)c1ccccc1)C2(C)C` [compound 57, (S)-N-(2-hydroxy-1-phenylethyl)-2-((2-methoxyethyl)amino)-5,5-dimethyl-5H-pyrrolo[3,4-d]pyrimidine-6(7H)-carboxamide], the IC50 was 3480 nM.

Regarding `CC1(C)c2cnc(NCCC#N)nc2CN1C(=O)N[C@H](CO)c1ccccc1` [compound 58, (S)-2-((2-cyanoethyl)amino)-N-(2-hydroxy-1-phenylethyl)-5,5-dimethyl-5H-pyrrolo[3,4-d]pyrimidine-6(7H)-carboxamide], the IC50 amounted to 1530 nM.

As for `CC1(C)c2cnc(N[C@H]3C[C@H](O)C3)nc2CN1C(=O)N[C@H](CO)c1ccccc1` [compound 59, N-((S)-2-hydroxy-1-phenylethyl)-2-(((1r,3S)-3-hydroxycyclobutyl)amino)-5,5-dimethyl-5H-pyrrolo[3,4-d]pyrimidine-6(7H)-carboxamide], the IC50 stood at 839 nM.
